In patent publication US20260226076A1, “FUSED MULTICYCLIC COMPOUNDS AND THEIR USE AS PARP1 INHIBITORS” (LAEKNA THERAPEUTICS SHANGHAI CO., LTD., priority 2022, published 2026):
Where two headings read alike, the source gives them in different places.

Experiments:
MDA-MB-436 cells = experiment: Cell proliferation assay (MDA-MB-436); assay type: cell-based; settings: Homo sapiens, MDA-MB-436, 168 h, at least 7 days, Cell-Titer Glo, read-out: MDA-MB-436 anti-proliferation assay
Protocol: (§1) For PARPi sensitivity, exponentially growing MDA-MB-436 and DLD1 BRCA2^−/− cells were seed in 96 or 384-well plates at very low density with the goal of not splitting for at least 7 days (typically 0.3k-1.2k cells/well). Cells were plated on […] and treated with DMSO or increasing concentrations of PARP1 inhibitors on Day 0. At the end of the experiment, cell viability was estimated using Cell-Titer Glo (Promega).

PARP1 = PARP1 (Homo sapiens, UniProt P09874); experiment: PARP1-DNA enzymatic trapping assay; assay type: biochemical; settings: 10 nM PARP1, 5 nM DNA probe, 2 mM NAD+, fluorescence polarization read at 30 minutes
Protocol: Enzymatic trapping assay is to measure the dissociation process of PARP1 from fluorescein-labeled DNA during the enzymatic activity. Assay was conducted at a total 10 μL of reaction volume, including 10 nM PARP1 and 5 nM DNA probe in the binding buffer (50 mM Tris-HCl pH 8.0, 50 mM NaCl, 1 mM MgCl2, 0.1 mM EDTA, and 0.01% IGEPAL), and was commenced by adding a final concentration of 2 mM NAD+ substrate.
PARP1 Poly-ADP ribosylation (PARylation) inhibitory assay was conducted with compounds dissolved in DMSO at a starting concentration of 5 μM. Dissolved compounds were added to 384-well microplate and premixed with PARPI enzyme and DNA probe for 20 minutes incubation. Enzymatic reactions were started by adding NAD+ to mixture, and each well was read at 30 minutes by microplate reader (VICTOR Nivo®, PerkinElmer) to detect the fluorescence polarization signal at 480 nm excitation/530 nm dual emission.
All measured IC50 values were calculated using four parameters dose-response inhibition model in GraphPad Prism 8.0.2 (La Jolla, California, USA, www.graphpad.com).

PARP2 = PARP2 (Homo sapiens, UniProt Q9UGN5); experiment: PARP2-FL displacement assay; assay type: binding; settings: 20 nM PARP2, 3 nM PARPi-FL, 4 hours incubation, fluorescence polarization
Protocol: A potent PARP inhibitor (PARPi-FL, Cat No. 6461, Tocris Bioscience) conjugated to BDY FL fluorophore was adopted to characterize the activity of PARP2 by measuring the displacement of binding of PARPi-FL to PARP2. Compounds to be tested were prepared at a concentration of 1-10 mM, and made a 3-fold serial dilution by 100% DMSO in a polypropylene plate (Bio-One small volume microplate, black, Cat No. 784076, Greiner). 100 nL of test compounds were dispensed into a 384-well polypropylene microplate and added 10 μL of reaction solution including premixed 20 nM PARP2 and 3 nM PARPi-FL. After 4 hours of incubation at room temperature, the fluorescence polarization signal at 480/30 nm excitation and 530/30 nm dual emission was measured by VICTOR Nivo® multimode plate reader (PerkinElmer). All of the measured IC50 values were calculated using four parameters dose-response inhibition model in GraphPad Prism 8.0.2 (La Jolla, California, USA, www.graphpad.com).

[1] = Tumor/plasma ratio study in MDA-MB-436 tumor-bearing mouse; assay type: in vivo; settings: female NOD-SCID mice with MDA-MB-436 tumors, dosed 28 days; for concentration at 24 h: LC-MS/MS; for Kp at 24 h: tumor/plasma, 24 hours after the last dose
Protocol: 1×10^7 MDA-MB-436 cells were implanted subcutaneously onto the flank of female NOD-SCID mice (aged 6-8 weeks weighing approximately 18-22 g). When tumors reached approximately 150-180 mm3, the mice were randomly assigned to treatment groups. The mice were continuously dosed with the Compounds for 28 days. On day 29, blood (50 μL) and tumor tissue samples were collected at 24 hours after the last dose. The collected blood samples were then centrifuged at 4600 rpm for 5 minutes at 4° C. to obtain plasma. To determine compound levels in plasma samples, each plasma sample was prepared using an appropriate dilution factor and compared against an 11-point standard calibration curve (1-5,000 ng/mL) prepared in DMSO and spiked into blank plasma. Acetonitrile (200 μL) was added with internal standard into 20 μL plasma samples, followed by centrifugation at 5,500 rpm for 10 minutes. Supernatant (150 μL) was then diluted in water (150 μL) and analyzed via LC-MS/MS. Tumor tissue samples were weighed, and then homogenized with 80% methanol at a ratio of 1:5 or 1:10 (tumor weight in grams to methanol volume in milliliters). Acetonitrile (300 μL) was added with internal standard into 30 μL tumor homogenates sample. The samples were vortexed for 30 s and then centrifuged at 5,500 rpm for 10 min at 4° C. The supernatant (150 μL) was transferred to 96-well plate and diluted with water (150 μL) and analyzed via LC-MS/MS. If a sample concentration in initial assay was not covered in the range of a given standard curve, proper dilution and concentration procedures were used in repeated testing.

DLD1 BRCA2−/− cells = experiment: Cell proliferation assay (DLD1 BRCA2−/−); assay type: cell-based; settings: Homo sapiens, DLD-1, 168 h, at least 7 days, Cell-Titer Glo, read-out: DLD1 BRCA2−/− anti-proliferation assay
Protocol: as §1

[2] = tumor tissue 24 hours after the last dose, read-out: Tumor
[3] = plasma, sample 24 hours after the last dose, read-out: Plasma

Chain of PARP2 (Q9UGN5 whole entry): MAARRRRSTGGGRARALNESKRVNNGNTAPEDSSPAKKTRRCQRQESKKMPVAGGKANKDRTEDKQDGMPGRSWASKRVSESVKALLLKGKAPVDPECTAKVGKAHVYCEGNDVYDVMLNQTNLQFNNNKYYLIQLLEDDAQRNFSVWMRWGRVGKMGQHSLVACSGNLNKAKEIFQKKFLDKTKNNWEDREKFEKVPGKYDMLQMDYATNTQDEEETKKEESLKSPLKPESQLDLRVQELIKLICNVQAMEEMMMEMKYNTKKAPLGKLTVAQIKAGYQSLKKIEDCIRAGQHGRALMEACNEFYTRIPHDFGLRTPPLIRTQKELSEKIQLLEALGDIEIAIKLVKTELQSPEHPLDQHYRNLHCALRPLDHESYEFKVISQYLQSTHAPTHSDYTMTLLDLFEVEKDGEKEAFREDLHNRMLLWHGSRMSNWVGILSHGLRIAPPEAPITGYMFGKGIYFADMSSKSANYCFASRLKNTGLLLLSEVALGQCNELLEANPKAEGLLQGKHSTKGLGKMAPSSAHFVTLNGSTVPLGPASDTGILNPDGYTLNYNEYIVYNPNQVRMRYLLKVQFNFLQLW
Chain of PARP1 (P09874 whole entry): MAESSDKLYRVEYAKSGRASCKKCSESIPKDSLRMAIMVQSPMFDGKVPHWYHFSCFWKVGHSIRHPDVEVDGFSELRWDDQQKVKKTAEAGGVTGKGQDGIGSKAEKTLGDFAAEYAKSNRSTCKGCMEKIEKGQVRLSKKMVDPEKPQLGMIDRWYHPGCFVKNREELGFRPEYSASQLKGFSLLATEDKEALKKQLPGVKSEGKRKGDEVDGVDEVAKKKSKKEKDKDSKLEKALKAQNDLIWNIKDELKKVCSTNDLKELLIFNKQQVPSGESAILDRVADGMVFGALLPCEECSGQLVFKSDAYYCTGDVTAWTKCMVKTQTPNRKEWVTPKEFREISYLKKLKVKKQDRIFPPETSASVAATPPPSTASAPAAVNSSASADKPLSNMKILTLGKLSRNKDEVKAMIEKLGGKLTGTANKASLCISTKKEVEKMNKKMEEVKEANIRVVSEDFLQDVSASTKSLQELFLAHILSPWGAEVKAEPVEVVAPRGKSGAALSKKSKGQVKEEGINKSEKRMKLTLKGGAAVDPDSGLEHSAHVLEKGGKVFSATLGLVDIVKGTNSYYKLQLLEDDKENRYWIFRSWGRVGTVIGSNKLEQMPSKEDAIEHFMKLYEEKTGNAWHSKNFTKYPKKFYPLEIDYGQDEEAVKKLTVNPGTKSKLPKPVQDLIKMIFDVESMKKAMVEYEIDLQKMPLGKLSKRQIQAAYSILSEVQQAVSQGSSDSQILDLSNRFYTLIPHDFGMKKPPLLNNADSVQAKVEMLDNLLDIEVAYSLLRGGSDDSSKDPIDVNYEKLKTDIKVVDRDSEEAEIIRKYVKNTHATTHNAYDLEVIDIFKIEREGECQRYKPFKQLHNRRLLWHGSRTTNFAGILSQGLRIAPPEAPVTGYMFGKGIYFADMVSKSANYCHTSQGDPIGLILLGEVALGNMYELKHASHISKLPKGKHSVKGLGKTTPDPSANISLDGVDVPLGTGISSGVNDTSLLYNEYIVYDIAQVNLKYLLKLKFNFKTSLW

| Compound | IC50 (MDA-MB-436 cells) | IC50 (PARP1) | IC50 (PARP2) | concentration at 24 h [1, 2] | concentration at 24 h [1, 3] | Kp at 24 h [1] | IC50 (DLD1 BRCA2−/− cells) |
| --- | --- | --- | --- | --- | --- | --- | --- |
| O=C(NC1COC1)c1ccc(N2C[C@H]3CN(Cc4ccc5c6c(c(=O)[nH]c5c4)CCC6)C[C@@H]3C2)c(F)n1 [Compound 87] | 0.66 nM | 5.73 nM | 1200 nM | 244 ng/g | 22 ng/mL | 11 | 0.62 nM |
| CCc1cc2ncc(CN3CCN(c4ccc(C(=O)NC)nc4)CC3)cc2[nH]c1=O [AZD5305, reference compound] |  |  |  | 249 ng/g | 584 ng/mL | 0.4 |  |
| CNC(=O)c1ccc(N2C[C@H]3CN(Cc4cc5[nH]c(=O)c6c(c5cn4)CCOC6)C[C@@H]3C2)c(F)n1 [Compound 77] | 0.41 nM | 7.73 nM | 1630 nM |  |  |  | 2.7 nM |
| CO[C@H]1C[C@@H](NC(=O)c2ccc(N3C[C@H]4CN(Cc5cnc6c7c(c(=O)[nH]c6c5)COCC7)C[C@@H]4C3)c(F)n2)C1 [Compound 73] | 0.27 nM | 8.29 nM | 1040 nM | 206 ng/g | 3.2 ng/mL | 64 | 1.09 nM |
| CNC(=O)c1ccc(N2C[C@@H]3CN(Cc4cnc5c(c4)[nH]c(=O)c4cccn45)C[C@H]3C2)cn1 (racemic) [Compound 4] | 0.9 nM | 7.93 nM | 925 nM |  |  |  | 0.58 nM |
| CCc1cc2cnc(CN3C[C@@H]4CN(c5ccc(C(=O)NC)nc5F)C[C@H]4C3)cc2[nH]c1=O [Compound 40] | 0.62 nM | 9.28 nM | 4050 nM |  |  |  | 0.77 nM |
| CNC(=O)c1ccc(N2C[C@H]3CN(Cc4cnc5c6c(c(=O)[nH]c5c4)COCC6)C[C@@H]3C2)c(F)n1 [Compound 71] | 0.18 nM | 5.05 nM | 500 nM |  |  |  | 0.44 nM |
| O=C(NC1COC1)c1ccc(N2C[C@H]3CN(Cc4cnc5c6c(c(=O)[nH]c5c4)CCC6)C[C@@H]3C2)c(F)n1 [Compound 52] | 0.44 nM | 7.41 nM | 3310 nM | 121 ng/g | 4.3 ng/mL | 28 | 1.44 nM |
| CCNC(=O)c1ccc(N2C[C@H]3CN(Cc4cnc5c6c(c(=O)[nH]c5c4)COCC6)C[C@@H]3C2)c(F)n1 [Compound 76] | 0.5 nM | 5.3 nM | 574 nM |  |  |  | 0.7 nM |
| CNC(=O)c1ccc(N2C[C@H]3CN(Cc4cnc5c6c(c(=O)[nH]c5c4)CCC6)C[C@@H]3C2)c(F)n1 [Compound 48] | 0.74 nM | 12 nM | 2050 nM |  |  |  | 1.02 nM |
